Laboratory results published in ChEMBL document CHEMBL6115002, “Discovery of novel sitolactone derivative leading to PANoptosis and differentiation of acute myeloid leukemia cells” (Eur J Med Chem, 2025).
Active and inactive are the calls of the source. No cut-off for these calls is given here.

Tests used:
HCT-15 = test: Antiproliferative activity against human HCT-15 cells assessed as inhibition of cell proliferation incubated for 72 hrs by CCK-8 assay; assay type: functional, cell-based; conditions: HCT-15, 72 h
[1] = Antiproliferative activity against mouse WEHI-3 cells assessed as inhibition cell proliferation incubated for 72 hrs by MTT assay; assay type: functional, cell-based; conditions: WEHI-3, 72 h
MV4-11 = test: Antiproliferative activity against human MV4-11 cells assessed as inhibition cell proliferation incubated for 72 hrs by MTT assay; assay type: functional, cell-based; conditions: MV4-11, 72 h
HCT-116 [2] = test: Inhibition of tumor sphere formation in human HCT-116 cells at 1.25 uM incubated for 24 hrs; assay type: functional, cell-based
HCT-116 [3] = test: Anti-cancer activity against human HCT-116 cells assessed as reduction in number of spheroids incubated for 24 hrs; assay type: functional, cell-based
NCI-H460 [4] = test: Inhibition of tumor sphere formation in human NCI-H460 cells incubated for 24 hrs; assay type: functional, cell-based
[5] = Antiproliferative activity against human SKNO-1 cells assessed as inhibition of cell proliferation incubated for 72 hrs by CCK-8 assay; assay type: functional, cell-based; conditions: SKNO-1, 72 h
MOLM-13 = test: Antiproliferative activity against human MOLM-13 cells assessed as inhibition of cell proliferation incubated for 72 hrs by CCK-8 assay; assay type: functional, cell-based; conditions: MOLM-13, 72 h
Z-138 = test: Antiproliferative activity against human Z138 cells assessed as inhibition of cell proliferation incubated for 72 hrs by CCK-8 assay; assay type: functional, cell-based; conditions: Z-138, 72 h
Jurkat = test: Antiproliferative activity against human Jurkat cells assessed as inhibition of cell proliferation incubated for 72 hrs by CCK-8 assay; assay type: functional, cell-based
PC-3 = test: Antiproliferative activity against human PC-3 cells assessed as inhibition of cell proliferation incubated for 72 hrs by CCK-8 assay; assay type: functional, cell-based; conditions: PC-3, 72 h
NCI-H460 [6] = test: Antiproliferative activity against human NCI-H460 cells assessed as inhibition of cell proliferation incubated for 72 hrs by CCK-8 assay; assay type: functional, cell-based; conditions: NCI-H460, 72 h
HT-29 = test: Antiproliferative activity against human HT-29 cells assessed as inhibition of cell proliferation incubated for 72 hrs by CCK-8 assay; assay type: functional, cell-based; conditions: HT-29, 72 h
SW1990 = test: Antiproliferative activity against human SW1990 cells assessed as inhibition of cell proliferation incubated for 72 hrs by CCK-8 assay; assay type: functional, cell-based; conditions: SW1990, 72 h
MIA PaCa-2 = test: Antiproliferative activity against human MIA PaCa-2 cells assessed as inhibition of cell proliferation incubated for 72 hrs by CCK-8 assay; assay type: functional, cell-based; conditions: MIA PaCa-2, 72 h
[7] = Induction of cell cycle arrest in mouse WEHI-3 cells assessed as increase in accumulation of cells at G1 phase at 0.25 uM incubated for 24 hrs by propidium iodide staining based flow cytometric analysis (reference value: 46.93%); assay type: functional
[8] = Induction of cell cycle arrest in mouse WEHI-3 cells assessed as increase in accumulation of cells at G1 phase at 0.5 uM incubated for 24 hrs by propidium iodide staining based flow cytometric analysis (reference value: 46.93%); assay type: functional
[9] = Induction of cell cycle arrest in mouse WEHI-3 cells assessed as increase in accumulation of cells at G2 phase at 0.25 uM incubated for 24 hrs by propidium iodide staining based flow cytometric analysis (reference value: 1.85%); assay type: functional
[10] = Induction of cell cycle arrest in mouse WEHI-3 cells assessed as increase in accumulation of cells at G2 phase at 1 uM incubated for 24 hrs by propidium iodide staining based flow cytometric analysis (reference value: 1.85%); assay type: functional
[11] = Induction of cell cycle arrest in mouse WEHI-3 cells assessed as increase in accumulation of cells at S phase at 0.5 uM incubated for 24 hrs by propidium iodide staining based flow cytometric analysis (reference value: 51.22%); assay type: functional
Kasumi 1 [12] = test: Induction of cell cycle arrest in human Kasumi 1 cells assessed as increase in accumulation of cells at G1 phase at 0.5 uM incubated for 24 hrs by propidium iodide staining based flow cytometric analysis (reference value: 50.41%); assay type: functional
Kasumi 1 [13] = test: Induction of cell cycle arrest in human Kasumi 1 cells assessed as increase in accumulation of cells at G2 phase at 1 uM incubated for 24 hrs by propidium iodide staining based flow cytometric analysis (reference value: 9.82%); assay type: functional
Kasumi 1 [14] = test: Induction of cell cycle arrest in human Kasumi 1 cells assessed as increase in accumulation of cells at S phase at 0.25 uM incubated for 24 hrs by propidium iodide staining based flow cytometric analysis (reference value: 39.77%); assay type: functional
Kasumi 1 [15] = test: Induction of cell cycle arrest in human Kasumi 1 cells assessed as increase in accumulation of cells at S phase at 0.5 uM incubated for 24 hrs by propidium iodide staining based flow cytometric analysis (reference value: 39.77%); assay type: functional
Kasumi 1 [16] = test: Induction of cell cycle arrest in human Kasumi 1 cells assessed as increase in accumulation of cells at S phase at 1 uM incubated for 24 hrs by propidium iodide staining based flow cytometric analysis (reference value: 39.77%); assay type: functional
WEHI-3 [17] = test: Induction of cell cycle arrest in mouse WEHI-3 cells assessed as increase in P21 level at 0.15 to 1.2 uM incubated for 24 hrs by Western blotting analysis; assay type: functional, cell-based; conditions: dose 0.15-1.2 µM
WEHI-3 [18] = test: Induction of cell differentiation in mouse WEHI-3 cells assessed as increase in CD11B expression by Western blotting analysis; assay type: functional, cell-based; conditions: dose 0.125-1 µM
Kasumi 1 [19] = test: Induction of cell differentiation in human Kasumi 1 cells assessed as increase in CD11B expression by Western blotting analysis; assay type: functional, cell-based; conditions: dose 0.25-1 µM
WEHI-3 [20] = test: Induction of apoptosis in mouse WEHI-3 cells assessed as increase in cleaved PARP-1 level incubated for 72 hrs by Western blotting analysis; assay type: functional, cell-based; conditions: dose 0.625-5 µM
Kasumi 1 [21] = test: Induction of apoptosis in human Kasumi 1 cells assessed as increase in caspase-3 level incubated for 72 hrs by Western blotting analysis; assay type: functional, cell-based; conditions: dose 0.625-5 µM
WEHI-3 [22] = test: Induction of pyroptosis in mouse WEHI-3 cells assessed as effect on cleaved N-GSDMB at 0.6 to 2.5 uM incubated for 24 hrs by Western blotting analysis; assay type: functional, cell-based; conditions: dose 0.6-2.5 µM
Kasumi 1 [23] = test: Induction of […] in human Kasumi 1 cells assessed as increase in p-RIPK3 level at 0.625 to 5 uM incubated for 72 hrs by Western blotting analysis; assay type: functional, cell-based; conditions: dose 0.625-5 µM
WEHI-3 [24] = test: Induction of pyroptosis in mouse WEHI-3 cells assessed as increase in p-MLKL level at 0.625 to 5 uM incubated for 72 hrs by Western blotting analysis; assay type: functional, cell-based; conditions: dose 0.625-5 µM
Kasumi 1 [25] = test: Induction of […] in human Kasumi 1 cells assessed as increase in p-MLKL level at 0.625 to 5 uM incubated for 72 hrs by Western blotting analysis; assay type: functional, cell-based; conditions: dose 0.625-5 µM
Kasumi 1 [26] = test: Disruption of carbon metabolic pathway in human Kasumi 1 cells by KEGG enrichment analysis; assay type: functional, cell-based
[27] = Toxicity in Balb/c mouse implanted with mouse WEHI-3 cells assessed as change in body weight at 100 to 200 mg/kg, po administered (4aR,6aS,7S,9aS,9bS)-2-(((S)-2-(hydroxymethyl)pyrrolidin-1-yl)methyl)-6a-methyl7 ((triisopropylsilyl)oxy)decahydrocyclopenta[f]chromen-3(2H)-one as prodrug once daily and measured after 15 days; assay type: organism-based; conditions: in vivo, 360 h, dose 100-200 mg/kg, time 15 day

C=C1C[C@@H]2[C@@H](CC[C@]3(C)[C@@H](O[Si](C(C)C)(C(C)C)C(C)C)CC[C@@H]23)OC1=O
IC50 (HCT-15): 8900 nM | IC50 [1]: 420 nM | IC50 (MV4-11): 1750 nM | inhibition (HCT-116 [2]): Active | Activity (HCT-116 [3]): Active | inhibition (NCI-H460 [4]): Active | IC50 [5]: 1240 nM | IC50 (MOLM-13): 1530 nM | IC50 (Z-138): 1880 nM | IC50 (Jurkat): 2600 nM | IC50 (PC-3): 2090 nM | IC50 (NCI-H460 [6]): 2820 nM | IC50 (HT-29): 1740 nM | IC50 (SW1990): > 10000 nM | IC50 (MIA PaCa-2): 1710 nM | Activity [7]: 51.78% | Activity [8]: 53.15% | Activity [9]: 1.76% | Activity [10]: 3.39% | Activity [11]: 43.52% | Activity (Kasumi 1 [12]): 53.53% | Activity (Kasumi 1 [13]): 18.95% | Activity (Kasumi 1 [14]): 36.36% | Activity (Kasumi 1 [15]): 31.64% | Activity (Kasumi 1 [16]): 22.53% | Activity (WEHI-3 [17]): Active | Activity (WEHI-3 [18]): Dose-dependent-effect | Activity (Kasumi 1 [19]): Dose-dependent-effect | Activity (WEHI-3 [20]): Dose-dependent-effect | Activity (Kasumi 1 [21]): Dose-dependent-effect | Activity (WEHI-3 [22]): Active | Activity (Kasumi 1 [23]): Active | Activity (WEHI-3 [24]): Active | Activity (Kasumi 1 [25]): Active | Activity (Kasumi 1 [26]): Active | Activity [27]: Non-toxic
